Source: PubChem BioAssay (NCI)
Where “and” joins values, the source holds several entries; their conditions need not be identical. Equal entries are not always repeated.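 48-hour exposure; five concentrations; linearly interpolated endpoints. At the GI50, growth is halved. TGI: total growth inhibition.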

The compounds below were run on ACHN renal (assay: NCI tumour cell line growth inhibition, 48 h).

Q: What does the source list for `CCN(Cc1ccc(F)cc1)c1cc(Cl)c(CO)c(Cl)c1`?
A: GI50: 14.9 µM; TGI: 29.2 µM

Q: With `NC(=O)c1ccccc1NC(=O)C(=O)C(C(=O)c1ccc(Cl)c(Cl)c1)C1OC(=O)c2ccccc21` (stereo not given) as the compound, how does the TGI read?
A: Its TGI is over 100 µM.

Q: With `COc1cc(-c2ccc3cc(OC)c(OC)c(OC)c3c2)cc(OC)c1OC` as the compound, how does the GI50 read?
A: The GI50 was 40.2 µM.

Q: What about the TGI of the same compound?
A: The TGI was over 100 µM.

Q: For `S=c1sc2c(n1-c1ccccc1)NC=NC2S` (stereo not given), which TGI is on record?
A: The TGI was over 100 µM.

Q: With `Cc1csc(-c2nnc(Nc3ccc(Oc4ncccc4-c4ccnc(N)n4)cc3)c3ccccc23)c1` as the compound, how does the GI50 read?
A: The GI50 was 2.11 µM.

Q: What about the TGI of the same compound?
A: The TGI was over 100 µM.

Q: `Cc1ccc(/C=C/C(=O)CCN(C)C)cc1` was tested. Which TGI did it give?
A: The TGI was 32.9 µM.

Q: With `COc1cc(C2CC(C)(O)Oc3cc4c(cc32)OCO4)cc(OC)c1OC` (stereo not given) as the compound, how does the TGI read?
A: The TGI was over 100 µM.

Q: For `CCCCCCCCCCn1cc[n+](C)c1`, which GI50 is on record?
A: The GI50 was 3.38 µM.

Q: And the TGI?
A: Its TGI is over 49.2 µM.

Q: With `CC1SC(c2ccc(F)cc2)N(NC(=O)C(O)c2ccccc2)C1=O` (stereo not given) as the compound, how does the GI50 read?
A: Its GI50 is over 100 µM.

Q: And the TGI?
A: Its TGI is over 100 µM.

Q: What does the source list for `O=C(Oc1ccc(Cl)cc1)c1ccccc1Nc1ccnc(C(F)(F)F)c1`?
A: GI50: 10.8 µM; TGI: 33.1 µM

Q: With `Cc1cc2c(C)[nH]nc2c(C(=O)O)c1C` as the compound, how does the TGI read?
A: The TGI was over 100 µM.

Q: What does the source list for `Nc1n[nH]c2cccc(C#Cc3cccc(C(=O)Nc4ccc(CN5CCOCC5)c(C(F)(F)F)c4)c3)c12`?
A: GI50: 2.63 µM; TGI: 9.96 µM

Q: For `COc1ccc(-c2cn[nH]c2-c2cc(OC)c(OC)c(OC)c2)cc1`, which GI50 is on record?
A: The GI50 was 0.0615 µM.

Q: What about the TGI of the same compound?
A: The TGI was 21.3 µM.

Q: With `Nc1ccccc1SC(CC(=O)c1ccccc1)c1cccc([N+](=O)[O-])c1` (stereo not given) as the compound, how does the GI50 read?
A: The GI50 was 14.5 µM.

Q: And the TGI?
A: Its TGI is 27.9 µM.

Q: `O=C(/C=C/c1ccc([N+](=O)[O-])cc1)c1ccc(NCc2nc3ccccc3[nH]2)cc1` was tested. Which TGI did it give?
A: Its TGI is 23 µM.

Q: `COc1ccc2nc(NC(=O)CSc3nnc4n3S(=O)(=O)c3ccccc3N4c3ccccc3)sc2c1` was tested. Which GI50 did it give?
A: Its GI50 is over 100 µM.

Q: And the TGI?
A: Its TGI is over 100 µM.

Q: What does the source list for `O=c1ccc2ccccc2cc1[O-].O=c1ccc2ccccc2cc1[O-].[O]=[U+2]=[O]`?
A: GI50: 14.2 µM; TGI: 33.1 µM

Q: `O=C1NC(=NC(CO)Cc2ccccc2)S/C1=C\c1ccc2ncccc2c1` (stereo not given) was tested. Which GI50 did it give?
A: The GI50 was 11.2 µM and 3.55 µM.

Q: And the TGI?
A: Its TGI is over 25 µM.

Q: `COC(=O)C(CCCN1C(=O)c2ccccc2C1=O)C(=O)OC` was tested. Which TGI did it give?
A: Its TGI is over 100 µM.

Q: With `COc1nc(NC2OC(COC(C)=O)C(OC(C)=O)C(OC(C)=O)C2OC(C)=O)c2c(OC(C)=O)cc(=O)oc2n1` (stereo not given) as the compound, how does the TGI read?
A: Its TGI is 29.6 µM.

Q: With `CC(C)(C)c1cc2c(O)c3cccc4c(=O)c5cccc6c5-c(c34)c2c(c1)c6=O` as the compound, how does the TGI read?
A: Its TGI is over 100 µM.

Q: What does the source list for `Nc1cc(NN=C(c2ccc(O)cc2)c2ccc(O)cc2)c([N+](=O)[O-])cc1[N+](=O)[O-]`?
A: GI50: 1.86 µM; TGI: 5.55 µM

Q: `O=C1C=CC(=O)c2nc3c(cc21)CCC3` was tested. Which TGI did it give?
A: The TGI was 33.1 µM.

Q: How did the GI50 turn out when `Nc1c(C(=O)Nc2cccc(C(F)(F)F)c2)sc2nc3c(cc12)CCCCC3` was run?
A: The GI50 was 1.56 µM.

Q: What about the TGI of the same compound?
A: The TGI was 3.73 µM.

Q: How did the TGI turn out when `CCCCN(CCCC)C(=O)C(=O)C(C(=O)c1ccc(OC)cc1)c1ccc(OC)cc1` (stereo not given) was run?
A: Its TGI is over 100 µM.

Q: Which TGI does the source give for `C=C(C)CCOC(c1ccccc1)(c1ccccc1)c1ccccc1` here?
A: Its TGI is over 100 µM.

Q: How did the TGI turn out when `COc1ccc(C)cc1-c1cc(Sc2ccccc2)c(-c2cc(C)ccc2OC)o1` was run?
A: Its TGI is over 31.6 µM.

Q: With `CC(=O)O/N=C(/C)c1ccccc1O` as the compound, how does the TGI read?
A: The TGI was over 100 µM.

Q: With `CC1(C)OC1COc1c2occc2cc2ccc(=O)oc12` (stereo not given) as the compound, how does the TGI read?
A: Its TGI is over 100 µM.

Q: How did the GI50 turn out when `CCCCCCCCCCCCC(O)c1ccc(C#CCCCCCCCCCO)o1` (stereo not given) was run?
A: Its GI50 is 18.8 µM.

Q: What about the TGI of the same compound?
A: Its TGI is 33.5 µM.

Q: Which GI50 does the source give for `COc1ccc(CCN=C2NC(=O)/C(=C/c3ccc4ncccc4c3)S2)cc1` here?
A: Its GI50 is over 25 µM.

Q: And the TGI?
A: Its TGI is over 25 µM.

Q: How did the TGI turn out when `CN(C)CCn1c2c3ccccc3ccc2c2oc(=O)c3ccccc3c21` was run?
A: Its TGI is 18.4 µM.

Each compound was assayed on SW-620 colon (assay: NCI tumour cell line growth inhibition, 48 h).

Q: With `COC(=O)CC(c1ccccc1)C1(c2ccccc2)SCCS1` (stereo not given) as the compound, how does the TGI read?
A: Its TGI is over 290 µM.

Q: `CCOC(=O)C1=C(C(=O)OCC)C2c3ccccc3C=CN2C(C(=O)OCC)=C(SC)S1` (stereo not given) was tested. Which TGI did it give?
A: Its TGI is over 100 µM.

Q: `CCCCCC[C@@H]1CCC2C(CO)[C@@H](O)CC[C@@H]2C1` (stereo not given in full) was tested. Which TGI did it give?
A: The TGI was 39.2 µM.

Q: How did the GI50 turn out when `CCN(Cc1ccc(F)cc1)c1cc(Cl)c(CO)c(Cl)c1` was run?
A: Its GI50 is 13.7 µM.

Q: What about the TGI of the same compound?
A: Its TGI is 30.4 µM.

Q: `NC(=O)c1ccccc1NC(=O)C(=O)C(C(=O)c1ccc(Cl)c(Cl)c1)C1OC(=O)c2ccccc21` (stereo not given) was tested. Which TGI did it give?
A: The TGI was over 100 µM.

Q: `S=c1sc2c(n1-c1ccccc1)NC=NC2S` (stereo not given) was tested. Which TGI did it give?
A: Its TGI is over 100 µM.
